From ChEMBL document CHEMBL1201862, “PubChem BioAssay data set” (2004)
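Dose response: 5 concentrations. Exposure: 48 h. Format: 96-well plates. Endpoint: linear interpolation; highest concentration if not reached. GI50 is the concentration that inhibits growth by half.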 Active and inactive are the calls of the source. No stated cut-off is given here; in the data, active = GI50 up to about 1.1 µM and inactive = higher.

Key:
Experiment in all cases: NCI-60 cell line screen, 48 h
786-0 = tested on: 786-0
BT-549 = tested on: BT-549
COLO 205 = tested on: COLO 205
DU-145 = tested on: DU-145
EKVX = tested on: EKVX
HCC 2998 = tested on: HCC 2998
K562 = tested on: K562
KM12 = tested on: KM12
M14 = tested on: M14
OVCAR-8 = tested on: OVCAR-8
SF-268 = tested on: SF-268
SK-MEL-28 = tested on: SK-MEL-28
SK-MEL-2 = tested on: SK-MEL-2
SN12C = tested on: SN12C
SNB-19 = tested on: SNB-19
SNB-75 = tested on: SNB-75
SNB-78 = tested on: SNB-78
TK-10 = tested on: TK-10
Hs-578T = tested on: Hs-578T
MDA-MB-231 = tested on: MDA-MB-231

Measured: GI50

NC1=C(Cl)C(=O)c2ccccc2C1=O
active: M14 0.893 µM
inactive: 786-0 7.4 µM | BT-549 2.47 µM | COLO 205 11.3 µM | DU-145 1.87 µM | EKVX 14.7 µM | HCC 2998 10.6 µM | K562 8.11 µM | KM12 8.05 µM | OVCAR-8 8.34 µM | SF-268 11.2 µM | SK-MEL-28 4.67 µM | SK-MEL-2 7.08 µM | SN12C 5.04 µM | SNB-19 9.46 µM | SNB-75 11.3 µM | SNB-78 25.4 µM | TK-10 22.2 µM

Cc1ccc(C(=O)N2CCN(C(=O)c3ccc(C)cc3)c3ccccc32)cc1
inactive: 786-0 3.41 µM | BT-549 > 100 µM | COLO 205 3.39 µM | DU-145 3.35 µM | EKVX 20.2 µM | HCC 2998 6.58 µM | Hs-578T 2.47 µM | K562 2.55 µM | KM12 3.29 µM | M14 4.57 µM | MDA-MB-231 23.7 µM | OVCAR-8 6.25 µM | SF-268 6.85 µM | SK-MEL-28 5.2 µM | SK-MEL-2 1.94 µM | SN12C 6.92 µM | SNB-19 5.77 µM | SNB-75 4.68 µM | SNB-78 6.97 µM | TK-10 10 µM
